Key:
[1] = system: turtle BRS3 (tBRS3); assay: Intracellular calcium assay (WT and mutants); assay type: cell-based, Chrysemys picta; conditions: 10 nM peptide; for Calcium fold: HEK293, Fluo8, tBRS3; for Intracellular Ca2+, mutants vs wild type (in words): tBRS3 Q127R, P205S, and R294H, each
Description: (§1) Intracellular calcium was measured using the non-wash calcium assay Fluo8 kit (ab112129, Abcam) according to the manufacturer’s instructions. Briefly, HEK293 cells were seeded in 24-well plates and were transfected with GRPR, NMBR, BRS3, or the empty vector plasmid pcDNA3.1-V5-His (300 ng) and incubated overnight at 37°C with 5% CO2. The next day, the cells were replated into a 96-well assay plate (black plate and clear bottom). After 12 h, growth media were aspirated, and calcium dye was added. […] The basal fluorescence intensity was recorded 15 times at 1 Hz for […]. The results were normalized to the average basal fluorescence intensity in ratio, and the peak response was used for the result calculation. Calcium fold was calculated using no stimulation data as standard value.

[2] = system: turtle BRS3 (tBRS3); assay: ERK1/2 phosphorylation (WT and mutants); assay type: cell-based, Chrysemys picta
Description: (§2) For ERK1/2 phosphorylation, HEK293 cells were seeded in 24-well plates and transfected with GRPR, NMBR, BRS3, mutants of different species’ BRS3, or an empty vector plasmid, pcDNA3.1-V5-His plasmid (300 ng). […] Each sample with an equal amount of protein was mixed with 6×SDS sample buffer, boiled for 5 min, and separated on 10% SDS-polyacrylamide gel electrophoresis (PAGE) before transferring the proteins onto a PVDF membrane. The membranes were then blocked at room temperature for 1 h with 5% milk powder in Tris-buffered saline-Tween (TBST), followed by subsequent incubation at 4°C overnight in TBST containing the different primary antibodies (1:1,000 dilution). After washing three times (10 min each time) with TBST, the membranes were incubated for 1 h in TBST containing the secondary antibodies (1:2,000 dilution), followed by washing three times (10 min each time) with TBST, prior to detection by chemiluminescence.

[3] = system: BRS3 receptors in placental mammals; assay: ERK1/2 phosphorylation, placental pooled; assay type: cell-based, human, mouse, dog, and aardvark; conditions: 1,000 nM peptide, 0/2/5 min, HEK293
Description: as §2

[4] = target: chicken BRS3 (cBRS3); assay: Radioligand binding (competition); parameters: species or system Gallus gallus; conditions: transfected HEK293 cells, 1 h 21°C, pH 7.4, mean ± SE, at least three experiments
Description: HEK293 cells were seeded in a 10-cm tissue culture dish at a density of 10^6 cells per dish and grown overnight at 37°C in growth medium. The following morning, 5 μg of different species’ BRS3 plasmids were transfected. After 6 h, the medium was replaced with growth medium. Cells were maintained at 37°C in a 5% CO2 atmosphere and used 48 h later for binding assays. The positive control group included transfected GRPR and NMBR; the test group consisted of transfected BRS3 from different species. […] The cell concentration was adjusted to between 0.05 and 4 × 10^6 cells/ml for each receptor such that less than 20% of the total added radioactive ligand was bound during the incubation, and the results were compared to cells transfected with GRPR or NMBR adjusted in concentration to bind a similar amount of ligand. After the incubation, 100 μl aliquots were added to 1.5-ml microfuge tubes, which contained 100 μl of binding buffer to determine the total radioactivity. The bound tracer was separated from unbound tracer by pelleting the cells through the binding buffer by centrifugation at 10,000g in a Microfuge E (Beckman) for 3 min. The supernatant was aspirated, and the pelleted cells were rinsed twice with a washing buffer that contained 1% (w/v) BSA in PBS. The amount of radioactivity bound to the cells was measured in a Cobra II Gamma counter (Packard Instruments). Binding was expressed as the percentage of total radioactivity that was associated with the cell pellet. […] Each point was measured in duplicate, and each experiment was replicated at least four times. […] All the experiment data were calculated using 1 pM ligand-treated as 100% control.

[5] = system: chicken BRS3 (cBRS3); assay: Intracellular calcium assay (WT and mutants); assay type: cell-based, Gallus gallus; conditions: 10 nM peptide, HEK293, Fluo8, cBRS3
Description: as §1

[6] = system: BRS3 receptors in placental mammals; assay: Intracellular calcium assay, placental pooled; assay type: cell-based, human, mouse, dog, and aardvark; conditions: 10 nM peptide, HEK293
Description: as §1

[7] = system: aardvark BRS3 (aBRS3); assay: Intracellular calcium assay (WT and mutants); assay type: cell-based, Orycteropus afer; conditions: for Calcium fold: 10 nM peptide, HEK293, Fluo8, aBRS3; for Intracellular Ca2+, mutants (in words): aBRS3 R127Q, S205P, and H294R, all three
Description: as §1

[8] = target: T1, GRPR (Homo sapiens, UniProt P30550); assay: Radioligand binding (competition); conditions: [125I]-Tyr42-GRP
T1 construct: HA; expressed in transfected cells; host or cells: HEK293
T1 sequence (P30550 whole entry, species assumed): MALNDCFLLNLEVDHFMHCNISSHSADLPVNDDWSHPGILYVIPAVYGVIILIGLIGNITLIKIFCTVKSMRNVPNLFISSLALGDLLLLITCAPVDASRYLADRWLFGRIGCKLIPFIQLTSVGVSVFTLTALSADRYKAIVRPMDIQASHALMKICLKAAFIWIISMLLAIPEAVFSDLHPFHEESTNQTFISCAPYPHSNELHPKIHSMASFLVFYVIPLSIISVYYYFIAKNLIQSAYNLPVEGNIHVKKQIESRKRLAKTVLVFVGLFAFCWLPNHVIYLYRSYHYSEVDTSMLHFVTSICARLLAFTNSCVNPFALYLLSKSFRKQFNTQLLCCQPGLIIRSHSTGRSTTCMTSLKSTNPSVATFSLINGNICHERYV
Description: HEK293 cells were seeded in a 10-cm tissue culture dish at a density of 10^6 cells per dish and grown overnight at 37°C in growth medium. The following morning, 5 μg of different species’ BRS3 plasmids were transfected. After 6 h, the medium was replaced with growth medium. Cells were maintained at 37°C in a 5% CO2 atmosphere and used 48 h later for binding assays. The positive control group included transfected GRPR and NMBR; the test group consisted of transfected BRS3 from different species. Then, [^125I]-Tyr^42-GRP and [^125I]-Tyr-NMB were used as the ligands to assess affinity to the various receptors. […] After the incubation, 100 μl aliquots were added to 1.5-ml microfuge tubes, which contained 100 μl of binding buffer to determine the total radioactivity. […] The amount of radioactivity bound to the cells was measured in a Cobra II Gamma counter (Packard Instruments). Binding was expressed as the percentage of total radioactivity that was associated with the cell pellet. […] Each point was measured in duplicate, and each experiment was replicated at least four times. […] All the experiment data were calculated using 1 pM ligand-treated as 100% control.

[9] = system: chicken BRS3 (cBRS3); assay: ERK1/2 phosphorylation (WT and mutants); assay type: cell-based, Gallus gallus; conditions: cBRS3 P205S; exception to the significant effects
Description: as §2

Row | Substance | Calcium fold ([1]; replicate 1) [fold] | Calcium fold ([1]; replicate 2) [fold] | Calcium fold ([1]; replicate 3) [fold] | Intracellular Ca2+, mutants vs wild type (in words) [1] | ERK phosphorylation, mutant (in words) ([2]; tBRS3 P205S) | ERK phosphorylation, mutant (in words) ([2]; tBRS3 Q127R) | ERK phosphorylation, mutant (in words) ([2]; tBRS3 R294H) | ERK phosphorylation (in words) [3] | IC50 ([4]; 50 pM [125I]-Tyr42-GRP) [nM] | IC50 ([4]; 50 pM [125I]-Tyr-NMB) [nM] | Calcium fold ([5]; replicate 1) [fold] | Calcium fold ([5]; replicate 2) [fold] | Calcium fold ([5]; replicate 3) [fold] | Intracellular Ca2+ (in words) [6] | Calcium fold ([7]; replicate 1) [fold] | Calcium fold ([7]; replicate 2) [fold] | Calcium fold ([7]; replicate 3) [fold] | Intracellular Ca2+, mutants (in words) [7] | Inhibition of GRPR–GRP binding (in words) [8] | ERK phosphorylation, mutant (in words) [9]
1 | GSHWAVGHLM-NH2 [GRP, gastrin-releasing peptide] | 5.1678 | 5.2199 | 5.5876 | remarkable decrease of cellular Ca^2+ ions | the effect is not obvious | almost could not be detected | almost could not be detected | could not be activated | 0.15 | 0.18 | 5.1641 | 5.5593 | 5.8165 | no stimulation was observed | 1.0918 | 1.1902 | 1.2372 | significant increase in cellular Ca^2+ ions levels | – | –
2 | neuromedin B [NMB] | – | – | – | remarkable decrease of cellular Ca^2+ ions | the effect is not obvious | almost could not be detected | almost could not be detected | could not be activated | 1.35 | 2.26 | – | – | – | no stimulation was observed | – | – | – | significant increase in cellular Ca^2+ ions levels | very low affinity | excepting P205S of cBRS3 for ERK phosphorylation activated by NMB
